According to patent publication US10575520B2, “Cyclohexylamine-based compounds and uses thereof” (BOARD OF SUPERVISORS OF LOUISIANA STATE UNIVERSITY AND …, priority 2016, dated 2020):
Where a name gives a salt, the structure may show the parent alone.

Tests used:
[1] = test system: C. formosanus hindgut protozoan populations; assay: Protozoan counting, total hindgut protozoa; type: in vivo, Coptotermes formosanus; details: 640.8 μg/mm^3, 14 day assay
Experimental: (§1) The effect of 2-phospho-myo-inositol dicyclohexylamine salt on C. formosanus hindgut protozoan populations was examined as follows: Ten mg of 2-phospho-myo-inositol were dissolved in 200 μL of distilled water and applied to filter paper, in a 60×15 mm plastic Petri dish, (640.8 μg/mm^3). Control filter paper received 200 μL of distilled water. With 75 worker termites per dish, collection group A were used. Pseudotrichonyrnpha grassii Koidzumi, Holornastigotoides hartmanni Koidzumi and Spirotrichonympha leidyi Koidzumi were counted daily for 2 week as described in Mannesmann, R., Z. Angew. Entomol. 72: 116-128 (1972); and modified by Maiastrello, L., et al., Pest Manag. Sci. 59: 58-68 (2002). Hindguts were removed from the posterior ends of three workers and gently macerated in 40 μL saline solution containing neutral red dye (0.5 mL of 1% aqueous neutral red solution dissolved in 10 mL saline solution). The number of each protozoan species was determined using a hemocytometer (Bright-line Improved Neubauer, Hausser Scientific, Horsham, Pa.) under a light microscope. The population of each protozoan species per hindgut (XF) was calculated as: XF=(G×n)/(V×3), where G=volume (μL) of solution hindguts dissected in; n=mean of two counts within hemocytometer; V=volume (μL) of area counted. Mean (±SE) XF values calculated from two replicates were used for graphical comparison of data. […]

[2] = test system: Spirotrichonympha leidyi Koidzumi; assay: Protozoan counting, S. leidyi; type: in vivo; details: 640.8 μg/mm^3, 14 day assay
Experimental: as §1

[3] = test system: worker termites (C. formosanus) antennae; assay: Termite antenna ablative shortening (antenna length quantification); type: in vivo, Coptotermes formosanus; details: 640.8 μg/mm^3, 14 day assay
Experimental: Fifty worker termites, from collection group B, were placed in a 60×15 mm polystyrene petri dish with 42.5 mm filter paper treated with 10 mg of 2-phospho-myo-inositol (640.8 μg/mm^3). Daily for 14 day three randomly selected termites were removed, euthanized with 5 μL of ethanol and their antennae were photographed, after which, GSA image analyzer was used to quantify the length of the termite antennae (Bansemer and Scheel 2010). Antenna length data were subjected to ANOVA followed by Tukey's Studentized range test (Institute 1989). All data were judged at α=0.05. All experiments were performed in triplicate.

[4] = test system: Pseudotrichonyrnpha grassii Koidzumi; assay: Protozoan counting, P. grassii; type: in vivo; details: 640.8 μg/mm^3, 14 day assay
Experimental: as §1

[5] = test system: Holornastigotoides hartmanni Koidzumi; assay: Protozoan counting, H. hartmanni; type: in vivo; details: 640.8 μg/mm^3, 14 day assay
Experimental: as §1

[6] = test system: worker C. formosanus termites; assay: Dose-response feeding assay (termite mortality on treated filter paper)
Source text: Worker C. formosanus were collected from Brechtel Park, New Orleans, La. by methods known in the art. Bait crates (open-mesh plastic containers) filled with southern yellow pine or spruce-pine-fir sapwood were arranged into a lattice and buried near a C. formosanus infested tree and collected after 3 to 9 weeks. Termite-containing crates were held in 250-liter plastic garbage cans kept at room temperature (26-28 C) and 70-80% relative humidity with the original food source. Termites were collected from New Orleans on 13 Jun. 2006 (collection group A); 9 Aug. 2006 (collection group B); 1 Mar. 2008 (collection group C); 9 May 2008 (collection group D); 20 May 2008 (collection group E); 20 Mar. 2009 (collection group F); 29 May 2009 (collection group G) and 11 May 2010 (collection group H); 18 Aug. 2012 (collection group I); May 2014 (collection group J); August 2014 (collection group K). The termite collection procedure was tapping infested wood sticks into clean plastic containers where termites were collected on moistened paper towels.
(§2) 2-phospho-myo-inositol (dicyclohexylamine salt), glycerol-3-phosphate (dicyclohexylamine salt), dicyclohexylamine phosphate, monocyclohexylamine phosphate, and neat cyclohexylamine were screened for termiticide activity as follows: test compounds were applied to 42.5 mm×3 μm filter papers, in 60×15 mm plastic Petri dishes, in a solution of 1 mg of test compound per 10 μL of distilled water. Doses of 2.5 mg (160.2 μg/mm^3 of filter paper), 5 mg (320.4 μg/mm^3) 10 mg (640.8 μg/mm^3), and 20 mg (1281.7 μg/mm^3) of 2-phospho-myo-inositol were examined. Following filter paper treatment distilled water was added to bring the total volume applied to the filter papers to 300 μL, using 300 μL of distilled water as control. Cyclohexylamine was applied to the paper diluted in amounts of 300 μL, in concentrations ranging from 0.626 to 10.2 μg/mm^3. To prevent desiccation, approximately 50 μL of distilled water was applied to filter paper throughout the trials every third day, or upon observing that a filter paper disc was relatively dry. To test whether termite mortality was induced by consumption of the cyclohexylamine-treated paper, or whether vapor presence of cyclohexylamine was responsible for the toxicity, we compared addition of cyclohexylamine to both paper and fiberglass filters—the latter of which they will not consume. In addition to pure cyclohexylamine, dicyclohexylamine phosphate and monocyclohexylamine phosphate were tested for toxicity. Dicyclohexylamine phosphate was tested in concentrations ranging from 0.348 to 348 μg/mm^3, and monocyclohexylamine phosphate was tested in concentrations ranging from 2.28 to 228 μg/mm^3. Replicates of twenty worker termites were incubated in the dark in a parafilm-sealed Petri dish at room temperature for 2 weeks. Termite mortality was recorded daily in triplicate experiments. An analysis of variance (ANOVA) (SAS ANOVA procedure) followed by Tukey's Studentized range test was used to evaluate statistical differences among groups (Institute 1989). All mortality data were judged at a=0.05.
(§3) Termites from collection group B were used in the 2-Phospho-Myo-Inositol dose mortality assay. Termites from collection groups C and D were used in both the dicyclohexylamine-2-phophoinositol, and dicylclohexyalmine-glycerol-3-phosphate dose mortality assay. Termites from collection group I were used in cyclohexylamine dose mortality assays. Termites from collection […] in the dicyclohexylamine phosphate and neat cyclohexylamine volatility dose mortality assays. Termites from collection group K were used in the monocyclohexylamine phosphate dose mortality assay.

[7] = test system: worker C. formosanus termites; assay: Cyclohexylamine volatile effects (cellulose paper vs fiberglass filter mortality); details: 600 μg
Experimental: as §2, §3

[8] = test system: worker C. formosanus termites; assay: Cellulose (filter paper) consumption; type: in vivo, Coptotermes formosanus
Experimental: In dose mortality experiments where paper consumption data are shown, filter papers were weighed in ambient humidity prior to sugar application. After 14 days termites were removed from the dishes and the filter paper from each replicate was cleaned, washed of residual carbohydrate and dried at 100 C for 24 h. After drying and humidity equilibration for 24 h, filter papers were reweighed for determination of paper consumption. […] All consumption data were judged at a=0.05.

## O=P(O)(O)OC1[C@@H](O)[C@H](O)C(O)[C@H](O)[C@H]1O (stereo partly shown) [2-Phospho-Myo-Inositol, 2-phospho-myo-inositol (di-cyclohexylamine salt)]
[1]
  total protozoan populations versus control: reduced total protozoan populations day four and thereafter
[2]
  S. leidyi populations versus control: significantly lower than controls on day nine and 11
[3]
  termite antennae length versus control: significantly reduced termite antennae of day five and six and eight through 14
[4]
  P. grassii populations versus control: significantly lowered on day one, five, eight, nine, 10 and 11
[5]
  H. hartmanni populations versus control: significantly reduced on day one, two, five, eight, nine, 10, 11 and 14
[6]; 160.2 μg/mm^3 filter paper, 14 day assay
  mortality versus control group: did not result in mortality significantly different from the control group
[6]; 320.4 μg/mm^3 filter paper, 14 day assay
  mortality versus control group: did not result in mortality significantly different from the control group
[6]; 640.8 μg/mm^3 filter paper, 14 day assay
  mortality versus control group: did not result in mortality significantly different from the control group
[6]; 1281.7 μg/mm^3
  day on which mortality became significant: eight
[6]; 1281.7 μg/mm^3, day 14
  mortality: 98%
[6]; 1281.7 μg/mm^3, day eight
  mortality: Forty three

## C1CCC(NC2CCCCC2)CC1.O=P(O)(O)O [Dicyclohexylamine Phosphate, Dicyclohexylamine phosphate]
[6]; 0.348 μg/mm^3
  day on which mortality became significantly higher: three
[6]; 0.348 μg/mm^3, day 14
  mortality: 28%
[6]; 1.22 μg/mm^3
  mortality versus control: The two highest dosage groups, 4.90 and 9.80 μg/mm^3, displayed mortality significantly different than the control
[6]; 2.45 μg/mm^3
  mortality versus control: The two highest dosage groups, 4.90 and 9.80 μg/mm^3, displayed mortality significantly different than the control
[6]; 4.90 μg/mm^3
  day on which mortality became significantly different: three
[6]; 4.90 μg/mm^3, day 14
  mortality: 38%
[6]; 9.8 μg/mm^3
  day on which mortality became significantly different: four
[6]; 9.8 μg/mm^3, day 14
  mortality: 36%
[6]; 17.22 μg/mm^3
  mortality versus control group: significantly different than the control group
[6]; 34.44 μg/mm^3
  mortality versus control group: significantly different than the control group
[6]; 68.88 μg/mm^3
  day on which mortality became significantly different: five
[6]; 68.88 μg/mm^3, day 14
  mortality: 45%
[6]; 348 μg/mm^3, first day
  mortality: 100%

## NC1CCCCC1.O=P(O)(O)O [Monocyclohexylamine Phosphate, Monocyclohexylamine phosphate]
[6]; 2.28 μg/mm^3
  mortality versus control: not significantly different from the control
[6]; 22.8 μg/mm^3
  mortality versus control: not significantly different from the control
[6]; 228 μg/mm^3
  day on which mortality became significantly different: 10 days
[6]; 228 μg/mm^3, day 10
  mortality: 38%
[6]; 228 μg/mm^3, day 14
  mortality: 100%

## NC1CCCCC1 [Neat Cyclohexylamine, cyclohexylamine]
[7]; treatment of cellulose
  day on which mortality became significantly different: eight
[7]; treatment of cellulose, day 14
  mortality: 45%
[7]; treatment of cellulose, day eight
  mortality: 25%
[7]; treatment of fiberglass
  mortality versus corresponding control group: did not result in mortality significantly different than that of the corresponding control group
[8]; 0.626 μg/mm^3, 14 days
  consumption rate per termite versus control: did not result in a consumption rate per termite significantly different from the control group
[8]; 0.822 μg/mm^3, 14 days
  consumption rate (per surviving termites) versus control: significantly lower than the control group
[8]; 1.253 μg/mm^3, 14 days
  consumption rate (per surviving termites) versus control: significantly lower than the control group
[8]; 2.510 μg/mm^3, 14 days
  consumption rate (per surviving termites) versus control: significantly lower than the control group
[6]; 0.62 μg/mm^3
  mortality versus control: only the highest dosage group, 2.51 μg/mm^3, displayed significantly different mortality
[6]; 0.82 μg/mm^3
  mortality versus control: only the highest dosage group, 2.51 μg/mm^3, displayed significantly different mortality
[6]; 1.0 μg/mm^3 (lowest dosage of 1.0, 1.7, 2.4)
  mortality versus control: Only the two highest dosage groups displayed mortality significantly different from the control
[6]; 1.25 μg/mm^3
  mortality versus control: only the highest dosage group, 2.51 μg/mm^3, displayed significantly different mortality
[6]; 1.7 μg/mm^3
  day on which mortality became significant: eight
[6]; 1.7 μg/mm^3, day 14
  mortality: 33%
[6]; 2.4 μg/mm^3
  day on which mortality became significant: five
[6]; 2.4 μg/mm^3, day 14
  mortality: 41%
[6]; 2.51 μg/mm^3
  day on which mortality became significantly different: six
[6]; 2.51 μg/mm^3, day 14
  mortality: 63%
[6]; 2.51 μg/mm^3, day six
  mortality: 16%
[6]; 3.39 μg/mm^3, day three
  mortality: 100%
[6]; 5.08 μg/mm^3, within one to three days
  mortality: 100%
[6]; 10.2 μg/mm^3, day one
  mortality: 100%

## C1CCC(NC2CCCCC2)CC1.O=P(O)(O)OCC(O)CO [glycerol-3-phosphate (dicyclohexylamine salt)]
[6]; higher dosage group, 640.8 μg/mm^3
  day on which mortality became significant: 5 days
[6]; higher dosage group, 640.8 μg/mm^3, day 12
  mortality: 98%
[6]; lower dosage group, 320.4 μg/mm^3
  day on which mortality became significant: 12 days
[6]; lower dosage group, 320.4 μg/mm^3, day 14
  mortality: 71%
